Assay results from publication PMC5049785, “Characterization of Novel Antimalarial Compound ACT-451840: Preclinical Assessment of Activity and Dose–Efficacy Modeling” (PLoS Medicine, 2016).

Columns and labels:
[1] = system: P. falciparum NF54 strain; assay: [3H]-hypoxanthine incorporation assay, NF54; format: cell-based, Plasmodium falciparum; conditions: mean ± SD
Protocol: (§1) In vitro time-, stage-, and concentration-dependent effects were assessed using pyrimethamine as a stage-specific and slow-acting control, as described elsewhere.

[2] = system: P. falciparum W2 (Vietnam); assay: [3H]-hypoxanthine incorporation assay, W2; format: cell-based, Plasmodium falciparum; conditions: read-out: 50% inhibitory concentration (IC50); W2, resistance CQ, SUL, PYR, CYC; mean ± SD
[3] = system: P. falciparum 7G8 (Brazil); assay: [3H]-hypoxanthine incorporation assay, 7G8; format: cell-based, Plasmodium falciparum; conditions: read-out: 50% inhibitory concentration (IC50); 7G8, resistance CQ, PYR, CYC; mean ± SD
[4] = system: Cam3.II^C580Y and Cam3.II^rev 0–3 h postinvasion rings; assay: Ring-stage survival assay (RSA0-3h); format: cell-based, P. falciparum; conditions: 6-h pulse, 35–700 nM, survival assessed 66 h later
Protocol: Ring-stage survival assays (RSA0-3h) were carried out at Columbia University Medical Center (New York, United States) as previously described. Parasite cultures were synchronized using 5% sorbitol (Sigma-Aldrich), and schizonts were incubated in RPMI-1640 containing 15 units/ml sodium heparin for 15 min at 37°C to disrupt agglutinated erythrocytes. These schizonts were concentrated over a gradient of 75% Percoll (Sigma-Aldrich), washed once in RPMI-1640, and incubated for 3 h with fresh erythrocytes to allow time for merozoite invasion. Cultures were then subjected again to sorbitol treatment to eliminate remaining schizonts. The 0–3 h postinvasion rings were adjusted to 1% parasitemia and 2% hematocrit in 1 mL volumes (in 48-well plates) and exposed to a range of ACT-451840 drug concentration (700–35 nM) or 0.1% DMSO for 6 h. Duplicate wells were established for each parasite line ± drug concentration. One-mL cultures were then transferred to 15-mL conical tubes, centrifuged at 800xg for 5 min to pellet the cells, and the supernatants carefully removed. As a washing step to remove drug, 10 mL culture medium were added to each tube, and the cells were resuspended, centrifuged, and the medium was aspirated. […] Stained parasites were detected using a BD Accuri 6 Flow Cytometer and analyzed using FlowJo Software. IC50 values were determined by nonlinear regression using GraphPad Prism 6.0. […]

[5] = system: P. vivax clinical isolates (Papua, Indonesia); assay: Ex vivo drug susceptibility, P. vivax clinical isolates; format: cell-based, Plasmodium vivax; conditions: P. vivax clinical isolates, n = 34 (open symbols); read-out: median IC50
Protocol: […]. Thick blood films made from each well were stained with 5% Giemsa solution for 30 min and examined microscopically. The number of schizonts per 200 asexual-stage parasites was determined for each drug concentration and normalized to the control well.

P. berghei = assay: In vitro (ex vivo) activity against P. berghei, [3H]-hypoxanthine incorporation; format: cell-based, Plasmodium berghei; conditions: 16 h exposure + 8 h incorporation
Protocol: In vitro (ex vivo) activity against the mouse malaria parasite P. berghei was measured at the Swiss TPH as described elsewhere, with the following modifications: heparinised blood of P. berghei infected and uninfected control female NMRI mice (final hematocrit of 2.5%) was used and exposed to compounds for 16 h followed by 8 h of [^3H]-hypoxanthine incorporation.

[6] = system: synchronous cultures of P. falciparum NF54; assay: In vitro time-, stage- and concentration-dependent effects; format: cell-based, Plasmodium falciparum; conditions: 6 or 24 h exposure
Protocol: as §1

[7] = system: GFP-transfected P. berghei ANKA strain; assay: In vivo efficacy, P. berghei mouse model; set-up: species or system Plasmodium berghei in female NMRI mice; conditions: for infected mice cured: no detectable parasites on Day 30, n=5
Protocol: In vivo efficacy against P. berghei was conducted at the Swiss TPH as previously described, with the modification that female NMRI mice from Harlan (Horst, The Netherlands) (n = 3) were infected with a GFP-transfected P. berghei ANKA strain (kindly donated by A. P. Waters and C. J. Janse, Leiden University Medical Center, The Netherlands) and parasitemia was determined using standard flow cytometry techniques. ACT-451840 was dissolved or suspended in corn oil before dosing and administered 24 h after infection (single-dose regimen) or 24, 48, and 72 h after infection (triple-dose regimen). With the single-dose regimen, blood was collected on Day 3 (72 h after infection). Samples for the triple-dose regimens were collected on Day 4 (96 h after infection). Antimalarial activity was calculated as the difference between the mean percent parasitemia for the control and treated groups expressed as a percent relative to the control group, consisting of five mice. Control mice were euthanized on Day 4 in order to prevent death typically occurring on Day 6. For the consistency in PK/PD modeling, Day 5 instead of Day 6 was considered the day of death, because treated animals were always euthanized one day before their natural death for animal welfare reasons. Animals were considered cured if there were no detectable parasites on Day 30 post-infection. To confirm the reliability of this assumption, blood from the surviving mice in curative experiments was inoculated into uninfected mice, and no parasitemia developed in these mice even after 30 d. The antimalarial efficacy is defined either as antimalarial activity or as survival: the two readouts of the P. berghei murine model.

[8] = General oral toxicity study up to 4 wk, dogs; format: in vivo
[9] = Effect of formulation and food on oral pharmacokinetics in dogs; format: in vivo; conditions: for AUC increase versus suspension formulation / Cmax increase versus suspension formulation: fasted dogs; for AUC0-∞ geometric mean / Cmax geometric mean: dogs, 100 mg oral, fasted
[10] = single-dose regimen, oral 10 mg/kg
[11] = single-dose regimen, oral 15 mg/kg
[12] = single-dose regimen, oral 20 mg/kg
[13] = single-dose regimen, oral 25 mg/kg
[14] = single-dose regimen, oral 30 mg/kg
[15] = single-dose regimen, oral 60 mg/kg
[16] = single-dose regimen, oral 80 mg/kg
[17] = single-dose regimen, oral 100 mg/kg
[18] = single-dose regimen, oral 300 mg/kg
[19] = triple-dose regimen, oral 3 mg/kg once per day
[20] = triple-dose regimen, oral 50 mg/kg once per day
[21] = triple-dose regimen, oral 100 mg/kg once per day
[22] = triple-dose regimen, oral 300 mg/kg once per day
[23] = triple-dose regimen, oral 2 x 15 mg/kg (twice per day)
[24] = triple-dose regimen, oral 2 x 30 mg/kg (twice per day)

Structure (SMILES): CC(=O)N1CCN(c2ccc(CN(C(=O)/C=C/c3ccc(C(C)(C)C)cc3)[C@@H](Cc3ccccc3)C(=O)N3CCN(Cc4ccc(C#N)cc4)CC3)cc2)CC1 [ACT-451840]
- IC90 ([1]; NF54, n ≥ 3): 600 pM
- IC99 ([1]; NF54, n ≥ 3): 1.2 ± 0.0 nM
- IC50 ([1]; read-out: 50% inhibitory concentration (IC50), NF54, no resistance, n = 3): 400 pM
- IC50 [2]: 200 ± 100 pM
- IC50 [3]: 300 ± 100 pM
- ring-stage survival rates, wild-type K13 allele versus C580Y mutation [4]: No difference in survival rates
- IC50 [5]: 3000 pM
- IC50 (P. berghei): 13500 pM
- stage specificity of growth reduction [6]: affected all asexual erythrocytic stages equally
- infected mice cured ([7]; 100 mg/kg triple-dose regimen): 20%
- infected mice cured ([7]; 300 mg/kg triple-dose regimen): 100%
- ED90 ([7]; oral triple-dose regimen, calculated from data in S2 Text): 13 mg/kg
- Antimalarial activity (%) [7, 10]: 21.75%
- Survival [7, 10]: 5.0 days
- Antimalarial activity (%) [7, 11]: 39.00%
- Survival [7, 11]: 5.0 days
- Antimalarial activity (%) [7, 12]: 76.23%
- Survival [7, 12]: 7.0 days
- Antimalarial activity (%) [7, 13]: 90.29%
- Survival [7, 13]: 6.7 days
- Antimalarial activity (%) [7, 14]: 97.42%
- Survival [7, 14]: 7.9 days
- Antimalarial activity (%) [7, 15]: 99.40%
- Survival [7, 15]: 13.7 days
- Antimalarial activity (%) [7, 16]: 98.88%
- Survival [7, 16]: 12.7 days
- Antimalarial activity (%) [7, 17]: 99.19%
- Survival [7, 17]: 12.4 days
- Antimalarial activity (%) [7, 18]: 98.84%
- Survival [7, 18]: 15.7 days
- Antimalarial activity (%) [7, 19]: 0.00%
- Survival [7, 19]: 6.0 days
- Antimalarial activity (%) ([7]; triple-dose regimen, oral 10 mg/kg once per day): 32.25%
- Antimalarial activity (%) ([7]; triple-dose regimen, oral 30 mg/kg once per day): 99.53%
- Antimalarial activity (%) [7, 20]: 99.78%
- Survival [7, 20]: 15.6 days
- Antimalarial activity (%) [7, 21]: 99.84%
- Survival [7, 21]: 21.8 days
- Antimalarial activity (%) [7, 22]: 99.78%
- Survival [7, 22]: 30.0 days
- Antimalarial activity (%) [7, 23]: 99.06%
- Survival [7, 23]: 9.0 days
- Antimalarial activity (%) [7, 24]: 99.81%
- Survival [7, 24]: 14.6 days
- no-observed-adverse-effect level ([8]; oral): 100 mg/kg/day
- local gastrointestinal toxicity ([8]; oral up to 1,000 mg/kg/day): no evidence of local gastrointestinal toxicity
- AUC increase versus suspension formulation ([9]; Phosal 53 MCT solution): 5.0 fold
- Cmax increase versus suspension formulation ([9]; Phosal 53 MCT solution): 4.3 fold
- AUC increase versus suspension formulation ([9]; corn oil solution): 7.8 fold
- Cmax increase versus suspension formulation ([9]; corn oil solution): 8.1 fold
- AUC0-∞ geometric mean ([9]; Phosal 53 MCT solution): 597 ng·h/mL
- Cmax geometric mean ([9]; Phosal 53 MCT solution): 112 ng/mL
- AUC0-∞ geometric mean ([9]; corn oil solution): 935 ng·h/mL
- Cmax geometric mean ([9]; corn oil solution): 213 ng/mL
